Assay results reported in PubChem BioAssay AID488890 (Southern Research Specialized Biocontainment Screening …, 2010).
Inconclusive results are not listed. The source made the active and inactive calls. How the calls were made is not given here.

What follows are molecules tested on Mycobacterium tuberculosis non-replicating, growth inhibition (assay: growth inhibition of non-replicating M. tuberculosis (AID 488890)).

Row | SMILES | IC50
1 | Cc1ccc(NC(=O)COC(=O)C(NS(=O)(=O)c2ccc(Cl)cc2)C(C)O)cc1C (stereo not drawn) | 22.1 µM (inactive)
2 | CCOC(=O)c1sc(NC(=O)CCN2CC(C)OC(C)C2)c(C(=O)OCC)c1C (stereo not drawn) | 21.8 µM (inactive)
3 | Cc1cc2nc(CSc3ccc(Cl)cc3)cc(=O)n2[nH]1 | 14.8 µM (inactive)
4 | COc1ccc(NC(=O)c2nc3ccccc3s2)cc1 | 9.36 µM
5 | O=C(Nc1ncccc1O)c1ccc(Oc2ccccc2)cc1 | 20.5 µM (inactive)
6 | O=c1oc2ccccc2c(Nc2ccccc2O)c1[N+](=O)[O-] | 8.58 µM
7 | Clc1ccccc1CSc1nnc([C@@H]2CCCN2)o1 | 12.2 µM (inactive)
8 | O=C(O)c1[nH]c(=O)[nH]c(=O)c1F | 5.7 µM
9 | O=S1(=O)C=C(Sc2nnc(-c3ccccc3)o2)c2ccccc21 | < 0.1 µM
10 | O=C(NNC(=O)c1ncc(Cl)c(Cl)c1Cl)c1ccc(F)cc1 | 15.1 µM (inactive)
11 | CCOC(=O)Cc1ccc(NCc2ccc(Cl)cc2)cc1 | 10.8 µM (inactive)
12 | N#CC(C(=O)Nc1ccccc1)=C1Nc2ccccc2N1 | 37.8 µM (inactive)
13 | COc1cc(/C=N/NC(=O)c2ccncc2)ccc1OC(=O)c1cccc(F)c1 | 3.53 µM
14 | Cc1ccc(CSCCNC(=O)c2cccc([N+](=O)[O-])c2)cc1 | 18.4 µM (inactive)
15 | O=c1c2cc(Cl)ccc2nc(-c2ccc([N+](=O)[O-])cc2)n1O | 2.2 µM
16 | CCOc1cccc2cc(C(=O)NCc3ccccc3)c(=N)oc12 | 10.2 µM (inactive)
17 | Cc1ccc(C(=O)NCCOc2cccc(C)c2)cc1 | 3.92 µM
18 | O=C(NN=C(Cc1ccccc1)Cc1ccccc1)c1ccncc1 | 0.35 µM
19 | O=C(Nc1nc2ccccc2[nH]1)c1cccc([N+](=O)[O-])c1 | 33.2 µM (inactive)
20 | CC1=NN(C(=O)c2ccc(C)o2)C(O)(c2ccccc2)C1 (stereo not drawn) | 3.05 µM
21 | CC(C)c1ccc(OCC(=O)NCc2ccccc2)cc1 | 19.2 µM (inactive)

Row | SMILES | IC50
22 | C/C(=N\Nc1ccc(Cl)cc1)c1c(O)cc(C)oc1=O | 3.61 µM
23 | C#CCSc1nnc(-c2ccc([N+](=O)[O-])cc2)o1 | < 0.1 µM
24 | O=C(CCC1CCCC1)NCc1ccccn1 | 3.4 µM
25 | Cc1ccc(C)c(-c2nnc(NC(=O)c3ccco3)o2)c1 | 0.66 µM
26 | O=c1oc(-c2cccs2)nc2c1cnn2-c1ccccc1 | 0.43 µM
27 | CC(C)c1nnc(NC(=O)c2c(O)c3cccc4c3n(c2=O)CCC4)s1 | 1.24 µM
28 | c1ccc(CNCCC(Cc2ccccc2)c2ccco2)cc1 (stereo not drawn) | 21.6 µM (inactive)
29 | CN1CCN(c2cc3c(cc2F)c(=O)c(C(=O)O)cn3CCF)CC1 | 7.52 µM
30 | Oc1ccccc1CN1CCCC(N2CCN(c3cccc(C(F)(F)F)c3)CC2)C1 (stereo not drawn) | 21.5 µM (inactive)
31 | O=C1c2ccccc2CC1Sc1nnc(-c2ccncc2)o1 (stereo not drawn) | 23.9 µM (inactive)
32 | O=C(c1cccc2cccc(O)c12)N1CCCCC1 | 3.82 µM
33 | CS(=O)(=O)c1sc(C#N)c2c1C(=O)CC(c1ccccc1)C2 (stereo not drawn) | 0.82 µM
34 | CC(C)CCNCC(O)CON=C1c2ccccc2-c2ccccc21 (stereo not drawn) | 9.29 µM
35 | CS(=O)(=O)Cc1nc2ccccc2oc1=O | 3.18 µM
36 | CCc1nnc(NC(=O)CN2CCN(Cc3ccc(F)cc3)CC2)s1 | 47 µM (inactive)
37 | C/C(=N\NC(=O)c1ccc(CN2CCc3ccccc3C2)cc1)c1ccccc1O | 0.7 µM
38 | CC(C)OC(=O)CCCCCN1C(=O)CSC1=S | 1.94 µM
39 | N#C/C(N=Nc1ccccc1O)=N\Nc1ccccc1O | 2.67 µM
40 | CCS(=O)(=O)c1ncc(Cl)c(C(=O)Nc2ccc(S(=O)(=O)N(C)c3ccccc3)cc2)n1 | 7.18 µM
41 | COC(=O)N/N=C/c1ccc([N+](=O)[O-])s1 | 17 µM (inactive)
42 | CSC1=NSC2=NC(=O)/C(=C\c3cccs3)C(=N)N12 | 4.51 µM

Row | SMILES | IC50
43 | O=S(=O)(c1ccc(OCC2CO2)cc1)c1ccc(OCC2CO2)cc1 (stereo not drawn) | 19.7 µM (inactive)
44 | O=C(Nc1ccccc1F)c1ccc(Br)o1 | 13.4 µM (inactive)
45 | O=C(Nc1ccccc1)c1ccc(Br)o1 | 14 µM (inactive)
46 | CCCn1nnnc1NCc1ccc(CC)cc1 | 8.41 µM
47 | CN(C)CCCNc1cc(C(C)(C)C)nc2c(-c3ccccc3)cnn12 | 18.6 µM (inactive)
48 | CCCOC(=O)c1ccc(NC(=O)C2C3C=CC(O3)C2C(=O)O)cc1 (stereo not drawn) | 9.27 µM
49 | COC(=O)CCC(=O)Nc1sc(Cc2ccccc2)c(C)c1C(N)=O | 13.6 µM (inactive)
50 | CCCNC(=O)OCC12CC3CC(CC(C3)C1)C2 | 0.65 µM
51 | CN(C)Cc1ccccc1Sc1ccc(Br)cc1 | 27.7 µM (inactive)
52 | COc1cc(/C=C/c2ccc3c([N+](=O)[O-])cccc3n2)ccc1OCC(=O)O | 1.79 µM
53 | O=C(NC12CC3CC(CC(C3)C1)C2)c1ccc([N+](=O)[O-])o1 | 5.44 µM
54 | c1ccc(OCc2nn3c(-c4ccccn4)nnc3s2)cc1 | 23 µM (inactive)
55 | CO/N=C/CC(=O)c1ccc(OC)cc1 | 30.5 µM (inactive)
56 | O=C1OC(/C=C/c2ccccc2)=NC/1=C\c1cccnc1 | 13 µM (inactive)
57 | COc1ccc(CCOC(=O)c2ccc(N)c([N+](=O)[O-])c2)cc1 | 12.3 µM (inactive)
58 | COc1ccc(-n2c3c(cc(C(=O)NNc4ccccc4)c2=O)C(=O)CC(C)(C)C3)cc1 | 17.8 µM (inactive)
59 | Cc1cccc(NC(=O)c2ccc([N+](=O)[O-])o2)c1C | 6.39 µM
60 | O=[N+]([O-])c1cc(Cl)cc(/C=N\Nc2ccccn2)c1O | 1.18 µM
61 | CCCC(C)C(=O)Nc1ccc(Cl)cn1 (stereo not drawn) | 10.3 µM (inactive)
62 | O=C1C=C(Nc2ccc(F)cc2)c2ccccc2C1=O | 5.36 µM
63 | CC1=CC(=O)NP(=O)(Oc2ccc3ccccc3c2)N1 (stereo not drawn) | 7.95 µM

Row | SMILES | IC50
64 | Cn1c(=O)c(C(=O)Nc2ccccn2)c(O)c2ccccc21 | 13.2 µM (inactive)
65 | O=[N+]([O-])c1ccc(CN2CCN(c3ccccc3Cl)CC2)o1 | 3.83 µM
66 | CCC(C)n1c(=S)[nH]c2ccccc2c1=O (stereo not drawn) | 14.8 µM (inactive)
67 | CC(CN1CCOCC1)OC(=O)c1ccc2c(c1)OCCO2 (stereo not drawn) | 33.5 µM (inactive)
68 | Cc1ccc(-c2nnc(-c3cccs3)o2)cc1 | 2 µM
69 | CCc1nnc(N/N=C/c2c(F)cccc2Cl)n1N | 15.3 µM (inactive)
70 | CC(Cc1ccccc1Sc1ccccc1)N(C)C (stereo not drawn) | 26 µM (inactive)
71 | O=C(Nc1nnc(-c2ccccc2Cl)o1)c1ccco1 | 6.7 µM
72 | O=C(Oc1ccccc1)c1ccc(NC(=O)c2ccco2)cc1 | 7.33 µM
73 | O=C(COc1c(Br)cc(Br)c2cccnc12)N1CCCCC1 | 9.93 µM
74 | Cn1cccc1/C=C1/C(=O)NC(=S)N(Cc2ccc(F)cc2)C1=O | 6.03 µM
75 | CCn1c2ccccc2c2cc(CNCc3ccc(OC)cc3OC)ccc21 | 7.41 µM
76 | Cc1cc(C)n(-c2nc(NCCCO)c3c4c(sc3n2)CCCC4)n1 | 10.5 µM (inactive)
77 | Cc1ccc(NC(=O)CCSc2nnc(-c3ccco3)o2)cc1 | 8.38 µM
78 | CCOc1ccc(NC(=O)COC(=O)C2(C)CC2(Cl)Cl)c([N+](=O)[O-])c1 (stereo not drawn) | 10.8 µM (inactive)
79 | COc1ccc(OC(=O)C(C)N2C(=O)c3ccccc3C2=O)cc1 (stereo not drawn) | 12.3 µM (inactive)
80 | CC(C)Cc1cc(C(=O)Nc2ccc(F)cc2F)no1 | 2.34 µM
81 | CC(C)(C)NC(=O)C(=O)NNC(=O)c1ccc(C(C)(C)C)cc1 | 5.82 µM
82 | Cc1cc(N/N=C/c2ccc(F)cc2)nc(-n2nc(C)cc2C)n1 | 4.92 µM
83 | COC(=O)C1=C(C)N(CC2CC2)C(=NCc2cccc(Cl)c2)N[C@H]1c1ccccc1 | 10.5 µM (inactive)
